# Measurements: patent US7517996B2, “Azole compound” (Ajinomoto Co., Inc., priority 2003, dated 2009)
# What was measured:
# [1] = molecular target: EDG2 (Homo sapiens, UniProt Q92633); details: as described in WO01/060819; cited from earlier work
# [2] = Inhibition of LPA-induced intracellular Ca2+ concentration increase (FLIPR); type: cell-based; details: LPA final concentration 5 μM; rat hepatic stellate cell derived myofibroblast like clone; Fluo-3, FLIPR
# From the text: (1) Establishment of Myofibroblast Like Cell Strain Derived from Rat Hepatic Stellate Cell Fraction A stellate cell fraction was obtained from the liver of male Wistar rat according to a conventional method (European J. Biochem., 1993, vol. 213, p. 815). After subculture for several generations, the cell was cloned by limiting dilution. Well grown 24 clones that formed colonies were isolated. These clones were stained with αSMA antibody and confirmed to be all positive and to have Myofibroblast like properties. […] (2) Measurement of Cell Activation (Intracellular Ca^2+ Concentration Increasing Action)-Inhibitory Activity The above-mentioned cells were cultured overnight in a 384 well plate at 24,000 cells/well and the medium was removed. An assay buffer (0.1% BSA, 20 mM HEPES, 1×HBSS, 2.5 mM Probenecid) containing 4 μM of Fluo-3, AM (Biotium) was added, and the cells were stained at 37° C. for 1 hour. Following the buffer containing the dye reagent was removed, and an assay buffer was added, intracellular Ca^2+ concentration was measured with FLIPR (Molecular Devices). Adding a test substance and LPA at the final concentration of 5 μM, the inhibitory action of the test substance on the increase in the intracellular Ca^2+ concentration by LPA was examined. The increase in the intracellular Ca^2+ concentration by LPA addition without test substance was taken as 100%, that without the addition of LPA was taken as 0%, and the substrate's concentration (IC50) at inhibiting increase in the intracellular Ca^2+ concentration by 50% was determined.
# [3] = tested on: peripheral circulation disorder model induced by lactic acid; details: animal model of peripheral arterial obstruction; as described in WO01/060819; cited from earlier work
# EDG2, sequence (Q92633 whole entry): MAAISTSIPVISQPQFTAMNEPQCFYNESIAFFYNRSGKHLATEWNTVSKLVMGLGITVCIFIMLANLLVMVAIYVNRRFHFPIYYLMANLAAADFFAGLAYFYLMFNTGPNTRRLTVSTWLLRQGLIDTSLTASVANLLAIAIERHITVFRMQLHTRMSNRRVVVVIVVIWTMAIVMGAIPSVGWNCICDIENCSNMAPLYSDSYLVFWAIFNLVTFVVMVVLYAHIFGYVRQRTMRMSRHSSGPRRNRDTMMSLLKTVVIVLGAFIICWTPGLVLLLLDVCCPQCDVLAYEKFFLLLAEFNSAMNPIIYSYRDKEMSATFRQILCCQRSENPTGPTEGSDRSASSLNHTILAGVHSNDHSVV
structure (smiles),measurement,setting,value
"COC(=O)CCSCc1ccc(-c2onc(C)c2NC(=O)OC(C)c2ccccc2Cl)cc1 (stereo not drawn) [Example 115, methyl 3-([4-[4-([[1-(2-chlorophenyl)ethoxy]carbonyl]amino)-3-methyl-5-isoxazolyl]benzyl]-sulfanyl)propanoate]",EDG2 antagonistic action,[1],strong EDG2 antagonistic action
same,IC50,[2],836 nM
same,action in peripheral circulation disorder model induced by lactic acid,[3],improving action
